Results: US11091478B2 (Fochon Pharmaceuticals, Ltd., priority 2017, dated 2021)
Read-outs that look alike come from different tables or passages of the source.

What was measured:
DOHH2 cells = experiment: Cell proliferation assay (MTS), DOHH2 cells, 120 h; format: cell-based
How it was run: (§1)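 RS4;11 and DOHH2 cells at 5000 cells/well in RPMI-1640 with 10% FBS were treated with compound at 1.5–10000 nM final, nine points, at 37 °C, 5% CO2. Exposure was 72 h for RS4;11 and 120 h for DOHH2. MTS was added for 2 h, absorbance read at 490/650 nm, and IC50 calculated.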

RS4;11 cells = experiment: Cell proliferation assay (MTS), RS4;11 cells, 72 h; format: cell-based
How it was run: as §1

| Compound | IC50 (DOHH2 cells; Homo sapiens, DOHH-2, 120 h) [nM] | IC50 (RS4;11 cells; Homo sapiens, RS4-11, 72 h) [nM] | IC50 (DOHH2 cells) [nM] | IC50 (RS4;11 cells) [nM] |
| --- | --- | --- | --- | --- |
| CN1CCC([C@H]2COc3cc(S(=O)(=O)NC(=O)c4ccc(N5CCN(CC6=C(c7ccc(Cl)cc7)CC(C)(C)CC6)CC5)cc4Oc4cnc5[nH]ccc5c4)cc([N+](=O)[O-])c3N2)CC1 [Example 2-233, (S)-2-((1H-pyrrolo[2,3-b]pyridin-5-yl)oxy)-4-(4-((4′-chloro-5,5-dimethyl-3,4,5,6-tetra-hydro-[1,1′-biphenyl]-2-yl)methyl)piperazin-1-yl)-N-((3-(1-methylpiperidin-4-yl)-5-ni-tro-3,4-dihydro-2H-benzo[b][1,4]oxazin-7-yl)sulfonyl)benzamide] | 13 | 17 | – | – |
| CC1(C)CCC(c2ccc(Cl)cc2)=C(CN2CCN(c3ccc(C(=O)NS(=O)(=O)c4cc5c(c([N+](=O)[O-])c4)N[C@H](COC4CCOCC4)CO5)c(Oc4cnc5[nH]ccc5c4)c3)CC2)C1 [Example 2-234, (R)-2-((1H-pyrrolo[2,3-b]pyridin-5-yl)oxy)-4-(4-((4′-chloro-4,4-dimethyl-3,4,5,6-tetra-hydro-[1,1′-biphenyl]-2-yl)methyl)piperazin-1-yl)-N-((5-nitro-3-(((tetrahydro-2H-pyran-4-yl)oxy)methyl)-3,4-dihydro-2H-benzo [b][1,4]oxazin-7-yl)sulfonyl)benzamide] | 6 | 14 | – | – |
| CC1(C)CCC(c2ccc(Cl)cc2)=C(CN2CCN(c3ccc(C(=O)NS(=O)(=O)c4cc5c(c([N+](=O)[O-])c4)N[C@@H](CC4CCOCC4)CO5)c(Oc4cnc5[nH]ccc5c4)c3)CC2)C1 [Example 2-235, (S)-2-((1H-pyrrolo[2,3-b]pyridin-5-yl)oxy)-4-(4-((4′-chloro-4,4-dimethyl-3,4,5,6-tetra-hydro-[1,1′-biphenyl]-2-yl)methyl)piperazin-1-yl)-N-((5-nitro-3-((tetrahydro-2H-pyran-4-yl)methyl)-3,4-dihdyro-2H-benzo[b] [1,4]oxazin-7-yl)sulfonyl)benzamide] | 23 | 10 | – | – |
| CC(C)OC[C@@H]1COc2cc(S(=O)(=O)NC(=O)c3ccc(N4CCN(CC5=C(c6ccc(Cl)cc6)CC(C)(C)CC5)CC4)cc3Oc3cnc4[nH]ccc4c3)cc([N+](=O)[O-])c2N1 [Example 2-236, (R)-2-((1H-pyrrolo[2,3-b]pyridin-5-yl)oxy)-4-(4-((4′-chloro-5,5-dimethyl-3,4,5,6-tetra-hydro-[1,1′-biphenyl]-2-yl)methyl)piperazin-1-yl)-N-((3-(isopropoxymethyl)-5-nitro-3,4-dihydro-2H-benzo[b][1,4]oxazin-7-yl)sulfonyl)benzamide] | 6 | 1 | – | – |
| CC(C)OC[C@H]1COc2cc(S(=O)(=O)NC(=O)c3ccc(N4CCN(CC5=C(c6ccc(Cl)cc6)CC(C)(C)CC5)CC4)cc3Oc3cnc4[nH]ccc4c3)cc([N+](=O)[O-])c2N1 [Example 2-237, (S)-2-((1H-pyrrolo[2,3-b]pyridin-5-yl)oxy)-4-(4-((4′-chloro-5,5-dimethyl-3,4,5,6-tetra-hydro-[1,1′-biphenyl]-2-yl)methyl)piperazin-1-yl)-N-((3-(isopropoxymethyl)-5-nitro-3,4-dihydro-2H-benzo[b][1,4]oxazin-7-yl)sulfonyl)benzamide] | 3 | 14 | – | – |
| CC1(C)CCC(CN2CCN(c3ccc(C(=O)NS(=O)(=O)c4cc5c(c([N+](=O)[O-])c4)N[C@H](C4CCCCC4)CO5)c(Oc4cnc5[nH]ccc5c4)c3)CC2)=C(c2ccc(Cl)cc2)C1 [Example 2-238, (R)-2-((1H-pyrrolo[2,3-b]pyridin-5-yl)oxy)-4-(4-((4′-chloro-5,5-dimethyl-3,4,5,6-tetra-hydro-[1,1′-biphenyl]-2-yl)methyl)piperazin-1-yl)-N-((3-cyclohexyl-5-nitro-3,4-dihydro-2H-benzo[b][1,4]oxazin-7-yl)sulfo-nyl)benzamide] | 18 | 9 | – | – |
| CC1(C)CCC(CN2CCN(c3ccc(C(=O)NS(=O)(=O)c4cc5c(c([N+](=O)[O-])c4)N[C@@H](COC4CC4)CO5)c(Oc4cnc5[nH]ccc5c4)c3)CC2)=C(c2ccc(Cl)cc2)C1 [Example 2-241, (S)-2-((1H-pyrrolo[2,3-b]pyridin-5-yl)oxy)-4-(4-((4′-chloro-5,5-dimethyl-3,4,5,6-tetra-hydro-[1,1′-biphenyl]-2-yl)methyl)piperazin-1-yl)-N-((3-(cyclopropoxymethyl)-5-nitro-3,4-dihydro-2H-benzo[b][1,4]oxazin-7-yl)sulfonyl)benzamide] | 11 | 4 | – | – |
| CC1(C)CCC(c2ccc(Cl)cc2)=C(CN2CCN(c3ccc(C(=O)NS(=O)(=O)c4cc5c(c([N+](=O)[O-])c4)N[C@H](CO[C@H]4CC[C@H](O)CC4)CO5)c(Oc4cnc5[nH]ccc5c4)c3)CC2)C1 [Example 2-243, 2-((1H-pyrrolo[2,3-b]pyridin-5-yl)oxy)-4-(4-((4′-chloro-4,4-dimethyl-3,4,5,6-tetrahydro-[1,1′-biphenyl]-2-yl)methyl)piperazin-1-yl)-N-(((R)-3-((((1r,4R)-4-hydroxycyclo-hexyl)oxy)methyl)-5-nitro-3,4-dihydro-2H-benzo[b][1,4]oxazin-7-yl)sulfonyl)benzamide] | 1 | 9 | – | – |
| CC1(C)CCC(CN2CCN(c3ccc(C(=O)NS(=O)(=O)c4cc5c(c([N+](=O)[O-])c4)N[C@@H](C4CCC(O)CC4)CO5)c(Oc4cnc5[nH]ccc5c4)c3)CC2)=C(c2ccc(Cl)cc2)C1 (stereo partly drawn) [Example 2-245A, (S)-2-((1H-pyrroo[2,3-b]pyridin-5-yl)oxy)-4-(4-((4′-chloro-5,5-dimethyl-3,4,5,6-tetra-hydro-[1,1′-biphenyl]-2-yl)methyl)piperazin-1-yl)-N-((3-(4-hydroxycyclohexyl)-5-nitro-3,4-dihydro-2H-benzo[b][1,4]oxazin-7-yl)sulfonyl)benzamide] | 1 | 1 | – | – |
| COC1CCC(C[C@H]2COc3cc(S(=O)(=O)NC(=O)c4ccc(N5CCN(CC6=C(c7ccc(Cl)cc7)CC(C)(C)CC6)CC5)cc4Oc4cnc5[nH]ccc5c4)cc([N+](=O)[O-])c3N2)CC1 (stereo partly drawn) [Example 2-246B, (S)-2-((1H-pyrrolo[2,3-b]pyridin-5-yl)oxy)-4-(4-((4′-chloro-5,5-dimethyl-3,4,5,6-tetra-hydro-[1,1′-biphenyl]-2-yl)methyl)piperazin-1-yl)-N-((3-((4-methoxycyclohexyl)meth-yl)-5-nitro-3,4-dihydro-2H-benzo[b][1,4]oxa-zin-7-yl)sulfonyl)benzamide] | 13 | 29 | – | – |
| COC1CCC([C@H]2COc3cc(S(=O)(=O)NC(=O)c4ccc(N5CCN(CC6=C(c7ccc(Cl)cc7)CC(C)(C)CC6)CC5)cc4Oc4cnc5[nH]ccc5c4)cc([N+](=O)[O-])c3N2)CC1 (some centres unmarked) [Example 2-247A] | 19 | 24 | – | – |
| COC1CCC([C@H]2COc3cc(S(=O)(=O)NC(=O)c4ccc(N5CCN(CC6=C(c7ccc(Cl)cc7)CC(C)(C)CC6)CC5)cc4Oc4cnc5[nH]ccc5c4)cc([N+](=O)[O-])c3N2)CC1 (stereo partly drawn) [Example 2-247B, (S)-2-((1H-pyrrolo[2,3-b]pyridin-5-yl)oxy)-4-(4-((4′-chloro-5,5-dimethyl-3,4,5,6-tetra-hydro-[1,1′-biphenyl]-2-yl)methyl)piperazin-1-yl)-N-((3-(4-methoxycyclohexyl)-5-nitro-3,4-dihydro-2H-benzo[b][1,4]oxazin-7-yl)sulfonyl)benzamide] | – | – | 36 | 45 |
| COC1CCC([C@@H]2COc3cc(S(=O)(=O)NC(=O)c4ccc(N5CCN(CC6=C(c7ccc(Cl)cc7)CC(C)(C)CC6)CC5)cc4Oc4cnc5[nH]ccc5c4)cc([N+](=O)[O-])c3N2)CC1 (stereo partly drawn) [Example 2-248A, (R)-2-((1H-pyrrolo[2,3-b]pyridin-5-yl)oxy)-4-(4-((4′-chloro-5,5-dimethyl-3,4,5,6-tetra-hydro-[1,1′-biphenyl]-2-yl)methyl)piperazin-1-yl)-N-((3-(4-methoxycyclohexyl)-5-nitro-3,4-dihydro-2H-benzo[b][1,4]oxazin-7-yl)sulfonyl)benzamide] | 27 | 35 | – | – |
| COC1CCC([C@@H]2COc3cc(S(=O)(=O)NC(=O)c4ccc(N5CCN(CC6=C(c7ccc(Cl)cc7)CC(C)(C)CC6)CC5)cc4Oc4cnc5[nH]ccc5c4)cc([N+](=O)[O-])c3N2)CC1 (stereo partly drawn) [Example 2-248B, (R)-2-((1H-pyrrolo[2,3-b]pyridin-5-yl)oxy)-4-(4-((4′-chloro-5,5-dimethyl-3,4,5,6-tetra-hydro-[1,1′-biphenyl]-2-yl)methyl)piperazin-1-yl)-N-((3-(4-methoxycyclohexyl)-5-nitro-3,4-dihydro-2H-benzo[b][1,4]oxazin-7-yl)sulfonyl)benzamide] | – | – | 14 | 64 |
| CC1(C)CCC(CN2CCN(c3ccc(C(=O)NS(=O)(=O)c4cc5c(c([N+](=O)[O-])c4)N[C@H](CO[C@H]4CC[C@H](O)CC4)CO5)c(Oc4cnc5[nH]ccc5c4)c3)CC2)=C(c2ccc(Cl)cc2)C1 [Example 2-250, 2-((1H-pyrrolo[2,3-b]pyridin-5-yl)oxy)-4-(4-((4′-chloro-5,5-dimethyl-3,4,5,6-tetrahydro-[1,1′-biphenyl]-2-yl)methyl)piperazin-1-yl)-N-(((R)-3-((((1r,4R)-4-hydroxycyclo-hexyl)oxy)methyl)-5-nitro-3,4-dihydro-2H-benzo[b][1,4]oxazin-7-yl)sulfonyl)benzamide] | 7 | 1 | – | – |
| CO[C@H]1CC[C@H](OC[C@@H]2COc3cc(S(=O)(=O)NC(=O)c4ccc(N5CCN(CC6=C(c7ccc(Cl)cc7)CC(C)(C)CC6)CC5)cc4Oc4cnc5[nH]ccc5c4)cc([N+](=O)[O-])c3N2)CC1 [Example 2-251, 2-((1H-pyrrolo[2,3-b]pyridin-5-yl)oxy)-4-(4-((4′-chloro-5,5-dimethyl-3,4,5,6-tetrahydro-[1,1′-biphenyl]-2-yl)methyl)piperazin-1-yl)-N-(((R)-3-((((1r,4R)-4-methoxycyclohex-yl)oxy)methyl)-5-nitro-3,4-dihydro-2H-benzo[b][1,4]oxazin-7-yl)sulfonyl)benzamide] | 44 | 1 | – | – |
